The target in data set [1] is T1, RecAPa*-induced full-length LexAPa autoproteolysis (Pseudomonas aeruginosa, UniProt P37452).
T1 construct: Full-length LexAPa was used instead of FlAsH-LexAPa ^CTD; made in house; host or cells: E. coli BL21(DE3)
The experiment in a line: RecAPa*-induced LexAPa autoproteolysis assay by SDS-PAGE. The format is biochemical, P. aeruginosa. The note with it: 1 μM full-length LexAPa, 1 μM RecA*Pa, 1 h at 37 °C. As to the method:
To further validate the activity of A12 on RecA*Pa-LexAPa, an assay was performed using full-length LexAPa, and autoproteolysis was followed by SDS-PAGE in the presence of different concentrations of A12 (Figure E). Cleavage reactions were performed at 1 μM full-length LexAPa, initiated by the addition of 1 μM RecA*Pa, and stopped after a 1 h incubation at 37 °C, corresponding to the same conditions used for the FP assay.
SDS-PAGE was used as an orthogonal technique to FP to validate the dose-dependent inhibition of RecAPa*-induced LexAPa autocleavage by the selected hit compound.
Full-length LexAPa was used instead of FlAsH-LexAPa ^CTD, but reaction volumes, molar concentrations of reagents, incubation time, and temperature were kept the same as in the FP-based assay. Following 1 h of incubation at 37 °C in the presence of RecAPa*, reactions were stopped by adding Laemmli solubilization buffer and freezing the samples at −20 °C.
Samples were boiled 5 min at 95 °C before being loaded on 4–12% polyacrylamide gels. After Coomassie staining of the gels, the intensity of the bands corresponding to LexAPa and its autoproteolytic fragments was quantified using ImageJ. Data obtained from LexACTD/NTD bands densitometry were used to estimate LexA self-cleavage percent inhibition (scaling all the data from 0%, positive control, to 100%, negative control). […]

Another data set concerns P. aeruginosa PAO1. The data set is described as follows: Antimicrobial susceptibility testing (MIC). It counts as cell-based, P. aeruginosa PAO1 (ATCC 15692). The note with it: A12 (32 μg/mL) (−). As to the method: The MIC of compound A12 and antibiotics was determined by using the Clinical Laboratory Standard Institute (CLSI) recommendations with minor modifications. […] Microplates were incubated in a humidified incubator for 18 h at 37 °C, and the bacterial growth was quantified by OD600. According to CLSI, MICs are defined as the lowest concentrations of antimicrobial agents that prevent visible growth.

The target of data set [2] is T2, LexAPa S125A / SOS-box dsDNA (Pseudomonas aeruginosa, UniProt P37452, S125A).
T2 construct: Concerning full-length LexAPa ^S125A, a biphasic melting curve was obtained for the pure protein; made in house; host or cells: E. coli BL21(DE3)
The experiment in a line: EMSA of LexAPa S125A binding to SOS box dsDNA. It counts as biochemical, P. aeruginosa. Conditions: 60-fold molar excess of A12. How it is done: LexAPa DNA-binding activity–which has to be preserved for an anti-SOS strategy to be effective–resides on the NTD but requires dimerization via the CTD. In this context, to rule out any interfering effect of A12 on LexAPa binding to SOS-box DNA, an EMSA was performed by incubating LexAPa with operator dsDNA sequences and different doses of A12, before analyzing the mixtures on native polyacrylamide gels.
An EMSA of the SOS-box dsDNA in the presence of full-length LexAPaS125A and different concentrations of the hit compound was performed to observe the potential interference effects of the selected drug on LexAPa binding to operator DNA sequences.
SOS-box dsDNA was produced by mixing equimolar amounts of AT-repeat_For and AT-repeat_Rev oligonucleotides (Supplementary, Table S1) in annealing buffer (10 mM Tris–HCl, 50 mM NaCl, 1 mM EDTA, pH 7.5), heating at 95 °C for 5 min, and then allowing the mixture to cool down to room temperature slowly overnight. The E. coli “AT-repeat” operator sequence was used as it is fully compatible with the P. aeruginosa SOS-box consensus (CTG-N2-T-N7-CAG).
1 μM SOS-box dsDNA was incubated either alone or with 8 μM 6His-LexAPa ^S125A in EMSA buffer (50 mM Tris–HCl, 750 mM KCl, 0.5 mM EDTA, pH 7.4). […]

Data set [3] deals with P. aeruginosa PAO1 on A549 lung epithelial cells. The data set is described as follows: P. aeruginosa PAO1 colonization of A549 lung epithelial cells. It counts as cell-based.
Data set [4] is described as follows: ESI-MS analysis of A12 in buffer. It counts as physicochemical. The note with it: 2 mM A12 in FP assay buffer, no DTT. As to the method: The same analysis was conducted after treatment of A12 with 2 mM DTT (Figure B). In this sample, the MS signals corresponding to the disulfide adduct were absent, leading to the conclusion that the dimerization of A12 by the formation of a disulfide bridge can occur under physiological conditions. When in monomeric form, the compound is likely degraded and/or not detectable by MS under the tested experimental conditions.
MS analysis was carried out on 5 μL samples of compound A12 (2 mM), of the proteins 6His-LexAPa and 6His-RecAPa (50 μM), and of the same proteins incubated with 2 mM A12 (2 h incubation at 25 °C, 10% v/v DMSO in 100 mM NaHCO3 pH 7.0). Aliquots of the latter samples were treated with 5 mM dithiothreitol (DTT) for 1 h at 25 °C before being buffer-exchanged in 100 mM NaHCO3 at pH 7.0. Samples were analyzed by an electrospray ionization (ESI) mass spectrometer equipped with a Xevo G2-XS ESI-Q-TOF mass spectrometer (Waters Corporation, Milford, Massachusetts, USA). Measurements were carried out at 1.5–1.8 kV capillary voltage and 30–40 V cone voltage.

The mark [5] stands for this setting: combination of ciprofloxacin 0.5 μg/mL and A12 100 μg/mL.

T2 sequence (P37452 2-204 S125A): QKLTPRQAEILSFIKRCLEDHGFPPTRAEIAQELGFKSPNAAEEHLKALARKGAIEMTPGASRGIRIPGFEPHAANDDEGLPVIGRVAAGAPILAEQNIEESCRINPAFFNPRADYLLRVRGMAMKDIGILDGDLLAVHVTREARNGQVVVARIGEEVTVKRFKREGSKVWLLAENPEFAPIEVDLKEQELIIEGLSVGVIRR
T1 sequence (P37452 2-204): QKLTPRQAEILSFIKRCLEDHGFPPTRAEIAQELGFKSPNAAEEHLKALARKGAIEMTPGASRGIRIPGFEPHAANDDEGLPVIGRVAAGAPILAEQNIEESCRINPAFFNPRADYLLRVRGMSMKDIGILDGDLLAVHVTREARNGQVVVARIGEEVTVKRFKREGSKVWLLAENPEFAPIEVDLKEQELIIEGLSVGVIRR

In turn, `O=C(O)CCNc1ccccc1S` [A12, 3-(2-sulfanylanilino)propanoic acid] gave an IC50 in data set [1] of 58 ± 5 µM. Further, in the data set on P. aeruginosa PAO1, the “MIC on P. aeruginosa PAO1” value is reported as “no antimicrobial activity”. In the data set on P. aeruginosa PAO1 (Pseudomonas aeruginosa, PAO1), this compound displayed an MIC greater than 32 µg/mL. In addition, in data set [2], the “LexAPa SOS box DNA-binding activity in the presence of A12” value is “retained full SOS box DNA-binding activity”. Also, the “Intracellular (internalized) burden of PAO1 in A549 cells” value in data set [3] (A12 100 μg/mL alone) is listed as “reduced the internalized bacterial growth”. For the same compound, in data set [3] (setting [5]), the “Intracellular (internalized) burden of PAO1 in A549 cells” value is “synergized with ciprofloxacin” and the “Total (adherent + intracellular) burden of PAO1 on A549 lung cells” value is given as “significantly reduced colonization”. The “Form of A12 in solution by MS” value in data set [4] is on record as “mainly exists as a disulfide-bridged self-dimer in solution”.

(Values after paper PMC12706794, “Identification and Characterization of a Small-Molecule Inhibitor of the Pseudomonas aeruginosa SOS Response” (ACS Infectious Diseases, 2025).)
